Reference: patent EP0748311B1, “THERAPEUTIC BENZONITRILES” (THE WELLCOME FOUNDATION LIMITED, priority 1994, dated 1995)
Like-named read-outs stand apart in the source and are kept apart here.

Key:
HIV-1 (strain 3B) = experiment: HIV assay: reversal of the cytopathic effect of HIV infection in MT4 cells (propidium iodide dye uptake); type: cell-based; conditions: Human immunodeficiency virus 1, 120 h, Anti-HIV-1 activity, day 5 post infection
Experimental: Anti-HIV activity of compounds of the invention was determined using the method of Averett D.R., J.Virol. Methods, […], 23, 263-276, by measuring the ability of the compound to reverse the cytopathic effect of HIV infection. This was determined by a quantitative assessment of cell growth monitored at the fifth day post infection by a propidium iodide dye uptake test. MT4 cells were incubated with 100XTCID50 of HIV-1 (strain 3B) or HIV-2 (strain ZY) for one hour prior to addition of the compound in six different concentrations varying from 2 to 200 µM. The cells were allowed to incubate for five days at 37°C. On day 5, NP-40, a detergent, was added to a final concentration of 0.5% immediately prior to analysis. Cell number was determined using a method which measures the fluorescence of a dye (propidium iodide) which binds to DNA. Since the amount of DNA is directly proportional to cell number, this fluorescence assay is an indication of cell growth. While uninfected cells double in cell number several times during the five days duration of the assay, HIV-infected cells grow very little, if at all. A compound which reverses the cytopathic effect of HIV would allow for rapid cell growth, approaching that of the mock-infected cells. […]

[1] = Cytotoxicity: inhibition of cell growth; type: cell-based; conditions: human
Experimental: Compounds of the invention were tested for the inhibition of growth of human T-cells (Molt 4), B-cells (IM9) and CEM cells by the method of Averett, D.R., J. Virol. Methods, 23, 263-276 (1989). Cells were grown as described in Prus, K.L., et al., Cancer Res., 50(6), 1817-1821 (1990).

male Lewis rats = experiment: Carrageenan pleurisy assay (4 hour); type: in vivo; conditions: 4 h after carrageenan, relative to solvent (vehicle) control animals; for % INHIBITION CELLS: inflammatory cells (neutrophils) in pleural exudate; for % INHIBITION EDEMA: pleural edema
Experimental: The antiinflammatory activity of compounds of the invention was determined by the procedure of Vinegar, R. et al., Proc. Soc. Exp. Biol. Med., 1981, 168, 24-32, using male Lewis rats of 150 ± 20 grams. The carrageenan dose was 0.075 mg/rat. Pleural exudate was harvested four hours after injection of carageenan. Acute antiinflammatory activity was determined by inhibition of pleural edema and infammatory cells (neutrophils) from a negative (vehicle) control group.
Acute Anti-inflammatory Activity of Compounds in the 4 Hour Carrageenan Pleurisy Assay in Rats

Row | IC50 (HIV-1 (strain 3B)) [nM] | Structure (SMILES) | viability at 100 µM ([1]; cem cells, read-out: % of Cells Surviving at 100 µM) [%] | viability at 100 µM ([1]; im9 cells, read-out: % of Cells Surviving at 100 µM) [%] | viability at 100 µM ([1]; molt 4 cells, Molt4, read-out: % of Cells Surviving at 100 µM) [%] | % INHIBITION CELLS (male Lewis rats; @ 25 MG/KG (IP)) [%] | % INHIBITION EDEMA (male Lewis rats; @ 25 MG/KG (IP)) [%] | % INHIBITION CELLS (male Lewis rats; @ 50 MG/KG (PO)) [%] | % INHIBITION EDEMA (male Lewis rats; @ 50 MG/KG (PO)) [%]
1 | 920 ± 40 | COc1cccc(S(=O)(=O)c2cccc(N)c2C#N)c1 [Example 2, 2-Amino-6-[(3-methoxyphenyl)sulfonyl]benzonitrile] | – | – | – | – | – | – | –
2 | 14 ± 1 | Cc1cc(C)cc(S(=O)(=O)c2cccc(N)c2C#N)c1 [Example 4, 2-Amino-6-[(3,5-dimethylphenyl)sulfonyl]benzontrile] | 70 | 97 | 91 | 0 | 5 | 29 | 31
